In patent US7842701B2, “Pyrazoloquinolone derivative and use thereof” (Takeda Pharmaceutical Company Limited, priority 2004, dated 2010):

The compounds below were run against T1, Src tyrosine kinase (p60^c-src) (Homo sapiens, UniProt P12931) (assay: Src tyrosine kinase inhibition (α-screen phosphotyrosine assay)). Conditions: 30 ng/ml p60^c-src, 100 ng/ml biotin-labeled poly(Glu:Tyr=4:1), 2 μM ATP, room temperature 10 minutes; value given only as order of magnitude; read-out: IC50 (concentration required for 50% inhibition of the enzyme activity).
T1 construct: purchased Upstate Biotechnology, Inc
T1 sequence (P12931 whole entry): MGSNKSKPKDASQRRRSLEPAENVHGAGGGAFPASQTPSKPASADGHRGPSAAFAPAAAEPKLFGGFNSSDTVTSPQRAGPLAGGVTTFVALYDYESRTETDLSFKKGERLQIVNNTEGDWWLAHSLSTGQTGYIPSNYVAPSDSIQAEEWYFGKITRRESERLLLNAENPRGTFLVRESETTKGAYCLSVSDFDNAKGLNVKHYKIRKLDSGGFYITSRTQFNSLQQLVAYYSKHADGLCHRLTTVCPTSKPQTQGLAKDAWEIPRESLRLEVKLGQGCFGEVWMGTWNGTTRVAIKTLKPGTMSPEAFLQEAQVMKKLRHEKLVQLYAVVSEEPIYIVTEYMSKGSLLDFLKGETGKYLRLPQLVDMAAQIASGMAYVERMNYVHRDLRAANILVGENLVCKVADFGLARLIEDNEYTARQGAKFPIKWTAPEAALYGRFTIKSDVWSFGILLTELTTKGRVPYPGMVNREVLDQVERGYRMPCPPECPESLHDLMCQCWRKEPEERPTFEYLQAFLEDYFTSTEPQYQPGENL
Format: biochemical
Protocol: Inhibition activity of the test compound for Src tyrosine kinase was measured by the method described as below. p60^c-src (a preparation purified partically, purchased from Upstate Biotechnology, Inc.) was usded as an enzyme. A biotin-labeled polypeptide (co-polymer of glutamic acid and tyrosine, glutamic acid:tyrosine=4:1, purchased from Nihon Schering K. K. (Japan), prepared by CIS Bio International) was used as a substrate. A solution having composition of 50 mM Tris-HCl (pH 7.5), 5 mM of MgCl2, 5 mM of MnCl2, 2 mM of dithiothreitol, 0.01% of Tween-20 was used as a buffer solution for measuring the activity of tyrosine-kinase. The amount of phosphorylation of tyrosine in the substrate after the reaction was measured by the method using phosphotyrosine recognition antibody. In the concrete, α-screen phosphotyrosine (p-tyr-100) assay kit (manufactured by PerkinElmer, Inc.) was used. Fusion™ (manufactured by PerkinElmer, Inc.) was used as a plate reader. The test compound was dissolved in dimethylsulfoxide, and diluted with the above-mentioned buffer solution for measuring the activity of tyrosine-kinase. To 5 μl of the solution of test compound was added 10 μl of a buffer solution containing 75 ng/ml of the enzyme (p60 ^c-src) and 250 ng/ml of the substrate (biotin-labeled polypeptide), and then added 10 μl of a buffer solution containing 5 μM ATP, and then the tyrosine-kinase reaction was initiated. Accordingly the tyrosine-kinase reaction was meant by a kinase reaction in a solution containing the test compound having designated concentration, 30 ng/ml of p60^c-src, 100 ng/ml of polypeptide, 2 μM of ATP, 50 mM of Tris-HCl (pH 7.5), 5 mM of MgCl2, 5 mM of MnCl2, 2 mM of dithiothreitol and 0.01% of Tween-20, and the amount of the reaction liquid was 25 μl. After the reaction was continued at room temperature for 10 minutes, the kinase reaction was terminated by adding 25 μl of a solution containing 100 mM of EDTA-2 sodium salt (Ethylene Diamine Tetraacetic Acid, disodium salt), 62.5 mM of HEPES (pH 7.4), 250 mM of NaCl, 0.1% of Bovine Serum Albumin, 10 μg/ml of streptavidine donor beads for α-screen assay, 10 μg/ml of acceptor beads binding anti-phosphotyrosin recognition antibody PY-100 for α-screen assay (Anti-phosphotyrisine(P-Tyr-100) Acceptor beads), and then the binding reaction between phosphotyrosine recognition antibody and phosphorylating tyrosine was continued at room temperature for 16 hours, and then the amount of tyrosine phosphorylation was measured by using plate reader Fusion™.
Inhibition rate (%)=100-[(count of the test compound-blank)/(control-blank)]×100 […]

IC50, ~1 nM:
Cc1ccc(O)cc1-n1nc2c(c1N)c(=O)[nH]c1ccccc12 [Example 37, 3-amino-2-(5-hydroxy-2-methylphenyl)-2,5-dihydro-4H-pyrazolo[4,3-c]quinolin-4-one]
Nc1c2c(=O)[nH]c3ccccc3c2nn1-c1cc(O)ccc1Cl [Example 38, 3-amino-2-(2-chloro-5-hydroxyphenyl)-2,5-dihydro-4H-pyrazolo[4,3-c]quinolin-4-one]
Nc1c2c(=O)[nH]c3cc(NCCCN4CCC(O)CC4)ccc3c2nn1-c1cccc(O)c1 [Example 61, 3-amino-2-(3-hydroxyphenyl)-7-{[3-(4-hydroxy-1-piperidinyl)propyl]amino}-2,5-dihydro-4H-pyrazolo[4,3-c]quinolin-4-one]
Nc1c2c(=O)[nH]c3cc(NCCCN4CCOCC4)ccc3c2nn1-c1cccc(O)c1 [Example 62, 3-amino-2-(3-hydroxyphenyl)-7-{[3-(4-morpholinyl)propyl]amino}-2,5-dihydro-4H-pyrazolo[4,3-c]quinolin-4-one]
